# From publication PMC5430962, “Retro-inverso Urokinase Receptor Antagonists for the Treatment of Metastatic Sarcomas” (Scientific Reports, 2017)
# pIC50: −log10 of the molar value. [ ]: non-standard residue; d: D form. Aib = CC(C)(N)C(=O)O
# Tests used:
# HT1080 cells [1] = assay: Matrigel invasion kinetics, xCELLigence RTCA, HT1080; type: cell-based, human
# Experimental: (§1) This assay was performed using E-well plates and the xCELLigence RTCA technology as described. Bottom wells were coated with 20 µg/well matrigel diluted in serum free medium. Matrigel was allowed to polymerize for 1 hr at 37 °C prior to seeding cells (1 × 10^4 cells/well) suspended in growth medium plus/minus RI peptides. Cells that cross matrigel adhere to the bottom of plates causing impedance changes that are proportional to the number of invading cells, and are expressed as a cell index value. Matrigel invasion was monitored for 20 hr. The experiments were performed three times in quadruplicate.
# cell proliferation = assay: Cell proliferation, xCELLigence RTCA; type: cell-based; conditions: 10 µM in growth medium, 85 hr, replaced every 24 hr
# Experimental: (§2) Cell proliferation was assessed using the xCELLigence RTCA technology as described. Cells (2 × 10^3/well) were seeded in E-well plates in growth medium and left to growth for 85 hr in the presence or the absence of 10 µM RI-3. For MTS assay, cells seeded on plates in growth medium plus/minus 10 µM RI-3, were allowed to proliferate at 37 °C in 5% CO2 and the absorbance of adherent cells stained with tetrazolium/formazan was assessed with a microplate reader. In both cases, medium with or without RI-3 was replaced every 24 hr. Data are the means ± SD of three independent experiments, performed in triplicate.
# [2] = system: chondrosarcoma Sarc cells; assay: Matrigel invasion kinetics, xCELLigence RTCA, Sarc; type: cell-based, human; conditions: 10 nM, 10% FBS, 20 hr
# Experimental: as §1
# GFP-tagged Sarc cells = assay: Growth and spread of subcutaneous GFP-tagged Sarc tumors in nude mice; type: in vivo, Foxn1nu/nu female nude mice; conditions: five mice per group
# Experimental: To evaluate the effect of RI-3 on tumor growth and vascularization, Sarc cells were injected, as a single-cell suspension (1 × 10^6 cells in 100 µl of sterile PBS, 97% viability), subcutaneously in the flanks of sixteen six-eight weeks old, Foxn1nu/nu female nude mice (Harlan). Animals were randomized into two 8-mice groups with the treatment group receiving 6 mg/kg RI-3 by intra-peritoneal injection every 24 hr, and the control group receiving an equivalent injected volume of vehicle (PBS) only. Time-dependent average weight was monitored every two days. The length and the width of tumors were measured at different time points with a calliper and volumes were calculated using the formula: ½ × (width)[2] × length (mm). After 10 days, blood samples (at least 500 µL/mouse) from the retro-orbital venous plexus of mice anesthetized with 1% isoflurane were collected using a heparinized capillary tube and processed for determination of the Circulating Tumor Cells (CTCs). Then, the animals were sacrificed, the excised tumors were fixed in buffered formalin and processed for paraffin sectioning. Tumor vascularization was assessed by counting vascular channels harbouring red blood cells on CD31 immuno-stained sections in 5 randomly chosen fields per section, in at least two sections per tumor at x 200 as described. Two additional experiments were carried out with the same experimental design by injecting GFP-tagged Sarc cells (1 × 10^6 cells/mouse) subcutaneously in the flanks of twenty-five six-eight weeks old, Foxn1nu/nu female nude mice (Harlan). Animals were treated with 6 mg/kg RI-3, 6 mg/kg RERF or vehicle by intra-peritoneal injection every 24 hr for 10 or 12 days. Tumor growth and the appearance of positive tumor lesions near tumors and in lungs were monitored as brightly visualized by GFP fluorescence with a MacroFluo fluorescence stereomicroscope (Leica). We searched for the presence of GFP-positive nodules on the entire surface of freshly isolated lungs. Lungs were also sliced at approximately 3-mm thickness to examine the parenchyma in depth, and the positive nodules were acquired at higher magnification.
# [3] = system: GFP-Sarc cells on HUVEC monolayer; assay: GFP-Sarc cell adhesion onto endothelium; type: cell-based, human; conditions: 10 nM
# Experimental: GFP-tagged Sarc cells were seeded on an endothelial monolayer as previously described. Briefly, sterile round glass coverslips (12 mm in diameter) were coated with 1:8 diluted matrigel (Becton Dickinson). HUVEC (5 × 10^4 cells in 200 μL/well) were seeded onto matrigel and allowed to form a monolayer for ~24 hr at 37 °C, 5% CO2 prior to seeding GFP-Sarc cells (1 × 10^4 cells/well) suspended in complete endothelial medium plus diluents or 10 nM RI-3. At the indicated times, cell-associated fluorescence was assessed by reading cells with the fluorescence plate reader. In a subset of experiments, after 2 hr, cells were stained with rhodamine-conjugated phalloidin and green fluorescent Sarc cells were identified on multiple z-series collected at 0.20 µm intervals using a confocal microscope (Carl Zeiss).
# [4] = system: Akt (Ser473) phosphorylation; assay: Akt phosphorylation by Western blot in RBL-2H3/ETFR cells; type: cell-based, rat; conditions: 0 to 10 minutes
# Experimental: RBL-2H3/ETFR grown to semi-confluence, were exposed to DMEM alone, 10 nM fMLF with/without 10 nM RI-3 at 37 °C in humidified air with 5% CO2. At the indicated times, cells were lysed in RIPA buffer and cell lysate protein content was measured by a colorimetric assay. Western blot analysis of AKT phosphorylation was performed as previously described using anti-phospho-Akt (Ser473) (pAKT) Ab (Cell Signaling) and anti-Akt mAb (R&D System). The effects of fMLF with/without 10 nM RI-3 were analyzed at the level of global kinase phosphorylation, using the dot-blot Proteome Profiler^TM Array Human PhosphoKinase Array Kit (R&D Systems), according to manufacturer’s instructions. Briefly, 300 µg of protein were applied on each membrane and the signals were detected as described for Western blot. The pixel density of each spot was measured using NIH Image 1.62 software. The intensity of positive control spots was used to normalize results between the four membranes. The intensity for each spot was then averaged over the duplicate spots.
# HT1080 cells [5] = assay: Cell proliferation, MTS assay; type: cell-based, human; conditions: 10 µM in growth medium, replaced every 24 hr
# Experimental: as §2
substance,measurement,setting,value
Ac-[dY][dR][Aib][dR]-NH2 (SMILES CC(=O)N[C@H](Cc1ccc(O)cc1)C(=O)N[C@H](CCCNC(=N)N)C(=O)NC(C)(C)C(=O)N[C@H](CCCNC(=N)N)C(N)=O) [RI-3],reduction of matrigel invasion (slope of cell index),"HT1080 cells [1]; HT1080, 10 nM, 10% FBS, 20 hr",64%
same,pIC50,"HT1080 cells [1]; increasing concentrations plus 10% FBS, matrigel invasion 20 hr, xCELLigence, read-out: concentration at which an overall 50% reduction of cell invasion was reached",11.00
same,effect on cell proliferation and doubling times (xCELLigence),cell proliferation,no difference was apparent
same,reduction of matrigel invasion (slope of cell index),[2],47%
same,changes in body weight,GFP-tagged Sarc cells; 6 mg/Kg i.p. every day for 12 days,did not cause changes in body weight
same,lungs with GFP-positive nodules (MacroFluo),"GFP-tagged Sarc cells; 6 mg/Kg i.p. every day for 12 days, untreated 3/5",negative
same,volume of tumors after 12 days,"GFP-tagged Sarc cells; 6 mg/Kg i.p. every day for 12 days, vehicle 678 +/− 169",381 +/− 123 mm^3
same,animals with subcutaneous GFP-positive lesions distant at least one centimeter from the primary tumors,"GFP-tagged Sarc cells; set-up experiment, 6 mg/Kg i.p. every day, sacrifice after 12 days, vehicle 4/5",2/5
same,reduction of cell-associated fluorescence (adhesion to endothelium),[3]; after 5 min,72%
same,reduction of cell-associated fluorescence (adhesion to endothelium),[3]; after 10 min,50%
same,reduction of cell-associated fluorescence (adhesion to endothelium),[3]; after 20 min,20%
same,reduction of cell-associated fluorescence (adhesion to endothelium),[3]; after 40 min,22%
same,effect on fMLF-induced Akt phosphorylation,[4]; 10 nM fMLF with 10 nM peptide,consistently decreased
same,effect of peptide alone on Akt phosphorylation,"[4]; 10 nM, no fMLF",did not affect Akt phosphorylation
same,effect on number of metabolically active cells (MTS),HT1080 cells [5],no difference was apparent
